Test results taken from patent US20170173070A1, “METHODS OF ADMINISTERING LMWH” (MOMENTA PHARMACEUTICALS, INC., priority 2014, published 2017).
Entries after “also recorded” stand apart in the source; their conditions may differ.

How the values were obtained:
[1] = system: pancreatic tumors of KPFMC mice; assay: Histological examination of KPFMC pancreatic tumors for invasion (intestine, biliary tract); assay type: in vivo
Protocol: (§1) FIG. 3A depicts H&E sections of pancreatic tumors from KPFMC mice at clinical endpoint. The tumors were analyzed microscopically to identify intestinal invasion (upper panel). […] Expression values are depicted in the heat map. FIG. 3D is a bar graph showing the influence of gemcitabine treatment on the invasive behavior of tumor cells. The cells were analyzed by quantification of double positive E-cadherin and Fsp1 cells in tumor sections of mice treated with saline and gemcitabine until clinical endpoint.
(§2) Tumor cells having increased Wnt/β-catenin signaling are known to be invasive. […] This observation supports that gemcitabine monotherapy results in an invasive tumor phenotype. To confirm that gemcitabine monotherapy results in an invasive tumor phenotype, a cohort of KPFMC mice were exposed to gemcitabine monotherapy (100 mg/kg), starting at day 45 after birth. The tumors were subsequently harvested at the clinical humane endpoint. […] This observation supports that gemcitabine monotherapy results in an invasive tumor phenotype.

[2] = system: tumor cells undergoing EMT in KPFMC pancreatic tumors; assay: Quantification of tumor cells undergoing EMT (E-cadherin/Fsp1 double positive cells) in KPFMC tumor sections; assay type: in vivo, mice; details: gemcitabine vs saline, treated until clinical endpoint
Protocol: (§3) Expression values are depicted in the heat map. Mice were treated from day 30 after birth until day 51. […] FIG. 4C is an immunofluorescence image of a section from a saline treated KPFMC mouse pancreas co-stained with E-cadherin and Fsp1 showing high magnification view of cells that co-express both the epithelial and mesenchymal marker (left panel).
(§4) Expression values are depicted in the heat map. Color intensities indicate the fold change with M402+gemcitabine combination therapy over M402. FIG. 5B is a bar graph showing the influence of M402 treatment on the invasive behavior of tumor cells induced by gemcitabine. Tumor sections derived from mice treated with saline and gemcitabine until clinical endpoint were analyzed by quantification of cells positive for E-cadherin and Fsp1 in tumor. FIG. 5C is a bar graph showing the quantification of intact Islets of Langerhans (lower panel) from pancreatic tumors after the indicated treatments. (Means±SD are depicted; *P<0.05, NS P>0.05, Student's t test).
Tumor cells having increased Wnt/β-catenin signaling are known to be invasive. […] This observation supports that gemcitabine monotherapy results in an invasive tumor phenotype. To confirm that gemcitabine monotherapy results in an invasive tumor phenotype, a cohort of KPFMC mice were exposed to gemcitabine monotherapy (100 mg/kg), starting at day 45 after birth. […]

[3] = system: RTK phosphorylation; assay: Phospho-RTK array analysis of KPFMC pancreatic tumors; assay type: in vivo, mice; details: gemcitabine treated KPFMC tumors
Protocol: as §1, §3
as §4, with “FIG. 5B is a bar graph showing the influence of M402 treatment on the invasive behavior of tumor cells induced by gemcitabine.” left out, “(Means±SD are depicted; *P<0.05, NS P>0.05, Student's t test).” left out

[4] = system: Wnt/β-catenin signaling pathway; assay: Expression of members of the Wnt/β-catenin signaling pathway; assay type: in vivo; details: gemcitabine monotherapy
From the text: FIGS. 6A and 6B depict the effect of gemcitabine treatment on the Wnt/β-catenin signaling pathway.
FIGS. 7A and 7B depict the effect of pretreatment with M402 followed by subsequent gemcitabine/M402 combination treatment on the Wnt/β-catenin signaling pathway.
as §2
This observation supports that M402 inhibits the gemcitabine induced invasive tumor phenotype.

[5] = system: pancreatic ductal adenocarcinoma (PDA); details: cited from earlier work

Nc1ccn([C@@H]2O[C@H](CO)[C@@H](O)C2(F)F)c(=O)n1 [gemcitabine]
biliary tract obstruction / obstructive jaundice (invasion into the biliary tree) ([1]; gemcitabine monotherapy 100 mg/kg from day 45, clinical endpoint): obstructive jaundice; also recorded: invasion increased | intestinal invasion of pancreatic tumors ([1]; gemcitabine monotherapy 100 mg/kg from day 45 after birth, clinical endpoint, vs saline): increased invasion into the adjacent intestine; also recorded: number of mice with intestinal invasion increased | tumor cells undergoing EMT (E-cadherin/Fsp1 double positive cells) [2]: increase in tumor cells undergoing EMT | RTK phosphorylation in pancreatic tumors [3]: increased the phosphorylation of several RTKs; also recorded: increase in RTK phosphorylation | expression of members of the Wnt/β-catenin signaling pathway [4]: increases expression of several members of the Wnt/β-catenin signaling pathway | overall survival ([5]; adjuvant gemcitabine post surgical removal of a pancreatic tumor): prolong overall survival | survival benefit ([5]; gemcitabine monotherapy in the absence of surgery): failed to show an extensive survival benefit
